Measurements taken from ChEMBL document CHEMBL4382281, “ASK1: A Therapeutic Target for the Treatment of Multiple Diseases” (ACS Med Chem Lett, 2019).

Key:
[1] = target: T1, Mitogen-activated protein kinase kinase kinase 5 (Homo sapiens, UniProt Q99683); experiment: Inhibition of recombinant V5-tagged ASK1 (unknown origin) expressed in HEK293 cells assessed as reduction in ASK1 autophosphorylation at T838 residue after 1 hr by MSD assay; format: cell-based
T1 sequence (Q99683 whole entry): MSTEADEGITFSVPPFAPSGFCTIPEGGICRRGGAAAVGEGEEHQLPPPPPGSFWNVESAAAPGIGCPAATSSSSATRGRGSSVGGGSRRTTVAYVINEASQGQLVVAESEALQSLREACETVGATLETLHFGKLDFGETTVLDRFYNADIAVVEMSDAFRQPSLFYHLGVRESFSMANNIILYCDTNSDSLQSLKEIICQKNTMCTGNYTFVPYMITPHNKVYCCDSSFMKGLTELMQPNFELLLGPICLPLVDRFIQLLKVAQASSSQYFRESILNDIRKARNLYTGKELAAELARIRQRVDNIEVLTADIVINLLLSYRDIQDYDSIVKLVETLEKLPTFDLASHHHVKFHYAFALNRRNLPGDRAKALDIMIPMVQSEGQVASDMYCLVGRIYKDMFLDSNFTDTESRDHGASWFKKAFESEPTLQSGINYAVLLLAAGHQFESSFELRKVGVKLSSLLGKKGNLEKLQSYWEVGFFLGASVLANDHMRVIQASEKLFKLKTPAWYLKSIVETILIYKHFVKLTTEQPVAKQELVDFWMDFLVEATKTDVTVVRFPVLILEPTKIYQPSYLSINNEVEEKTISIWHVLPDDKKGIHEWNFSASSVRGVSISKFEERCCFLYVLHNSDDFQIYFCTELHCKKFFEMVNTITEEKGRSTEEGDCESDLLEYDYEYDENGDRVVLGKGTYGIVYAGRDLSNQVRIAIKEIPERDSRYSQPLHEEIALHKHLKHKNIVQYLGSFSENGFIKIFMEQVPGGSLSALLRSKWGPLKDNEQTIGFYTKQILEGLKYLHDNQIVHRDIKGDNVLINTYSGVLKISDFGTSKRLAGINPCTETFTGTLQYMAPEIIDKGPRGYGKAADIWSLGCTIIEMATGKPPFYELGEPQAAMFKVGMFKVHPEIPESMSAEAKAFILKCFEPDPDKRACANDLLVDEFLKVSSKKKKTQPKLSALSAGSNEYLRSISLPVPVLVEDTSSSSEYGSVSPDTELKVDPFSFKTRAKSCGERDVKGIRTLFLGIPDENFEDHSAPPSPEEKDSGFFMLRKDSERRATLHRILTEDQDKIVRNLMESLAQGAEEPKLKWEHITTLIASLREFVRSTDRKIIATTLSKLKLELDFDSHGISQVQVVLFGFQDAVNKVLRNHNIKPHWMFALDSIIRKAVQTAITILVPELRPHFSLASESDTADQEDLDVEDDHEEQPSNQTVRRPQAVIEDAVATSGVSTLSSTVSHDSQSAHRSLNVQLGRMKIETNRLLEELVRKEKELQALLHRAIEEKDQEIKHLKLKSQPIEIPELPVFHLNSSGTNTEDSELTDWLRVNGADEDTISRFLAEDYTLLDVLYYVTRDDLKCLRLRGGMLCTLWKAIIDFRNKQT

[2] = target: T1, Mitogen-activated protein kinase kinase kinase 5; experiment: Inhibition of full-length human GST-tagged ASK1 expressed in baculovirus expression system using biotinylated STK Substrate 3 preincubated for 10 mins followed by ATP addition and measured after 5 hrs by TR-FRET assay
[3] = target: T1, Mitogen-activated protein kinase kinase kinase 5; experiment: Inhibition of human ASK1 using MBP as substrate measured in presence of [gamma-33P]-ATP

For `Cc1ccc2c(c1)C(=O)Nc1cccc(n1)-c1nncn1CCCCO2`, the IC50 [1] was no more than 1 µM, the IC50 [2] was no more than 0.1 µM and the IC50 [3] was no more than 0.1 µM.
`O=C1Nc2cccc(n2)-c2nncn2C/C=C/COc2c(Br)cccc21` gave an IC50 [1] greater than 10 µM and an IC50 [2] of 0.1 to 1 µM.
For `Cc1ncn(-c2ccc3c(c2)C(=O)Nc2cccc(n2)-c2nncn2CCCCO3)c1C`, the IC50 [1] was no more than 1 µM, the IC50 [2] was no more than 0.1 µM and the IC50 [3] was no more than 0.1 µM.
